Measurements published in patent publication US10294202B2, “Pyrrolidinones as herbicides” (FMC Corporation, priority 2013, dated 2019).

How the values were obtained:
pigweed = assay: Test A pre-/postemergence herbicide test; format: in vivo, Amaranthus retroflexus
Method in brief: (§1)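 Both application timings used compounds in a non-phytotoxic solvent plus surfactant. Pre-emergence: soil sprayed directly after seeding into loam/sand. Post-emergence: foliage of 2–10 cm seedlings (1–2 leaves) sprayed. Injury rated ~10 days later, 0–100.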

sedge, umbrella = assay: Test B flooded paddy test; format: in vivo, Cyperus difformis; details: 250 g ai/ha, Flood; scale of 0 to 100 where 0 is no effect and 100 is complete control
Method in brief: (§2)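 Scored visually 0–100 (0 no effect, 100 complete control) versus controls after 13 to 15 greenhouse days. Treatment: compound added to paddy water kept 3 cm above soil, on 2-leaf-stage plants.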

wheat = assay: Test A pre-/postemergence herbicide test; format: in vivo, Triticum aestivum
Method in brief: as §1

barnyardgrass [1] = assay: Test A pre-/postemergence herbicide test; format: in vivo, Echinochloa crus-galli
Method in brief: as §1

corn = assay: Test A pre-/postemergence herbicide test; format: in vivo, Zea mays
Method in brief: as §1

ducksalad = assay: Test B flooded paddy test; format: in vivo, Heteranthera limosa; details: 250 g ai/ha, Flood; scale of 0 to 100 where 0 is no effect and 100 is complete control
Method in brief: as §2

velvetleaf = assay: Test A pre-/postemergence herbicide test; format: in vivo, Abutilon theophrasti
Method in brief: as §1

giant foxtail = assay: Test A pre-/postemergence herbicide test; format: in vivo, Setaria faberii
Method in brief: as §1

crabgrass, large = assay: Test A pre-/postemergence herbicide test; format: in vivo, Digitaria sanguinalis
Method in brief: as §1

barnyardgrass [2] = assay: Test B flooded paddy test; format: in vivo, Echinochloa crus-galli; details: 250 g ai/ha, Flood; scale of 0 to 100 where 0 is no effect and 100 is complete control
Method in brief: as §2

morningglory = assay: Test A pre-/postemergence herbicide test; format: in vivo, Ipomoea spp.
Method in brief: as §1

rice = assay: Test B flooded paddy test; format: in vivo, Oryza sativa; details: 250 g ai/ha, Flood; scale of 0 to 100 where 0 is no effect and 100 is complete control
Method in brief: as §2

[3] = Postemergence, 125 g ai/ha, 0 to 100 scale, 0 no effect, 100 complete control
[4] = Postemergence, 500 g ai/ha, 0 to 100 scale (0 no effect, 100 complete control)
[5] = Preemergence, 125 g ai/ha, visual rating on 0 to 100 scale (0 no effect, 100 complete control)
[6] = preemergence, 500 g ai/ha, 0 to 100 scale
[7] = preemergence, 500 g ai/ha, 0 to 100 scale (0 no effect, 100 complete control)
[8] = Postemergence, 1000 g ai/ha, 0 to 100 scale (0 no effect, 100 complete control)
[9] = Preemergence, 1000 g ai/ha, visual rating on 0 to 100 scale (0 no effect, 100 complete control), approx. 10 days

Cc1cccc(C2CN(C(=O)OC(C)(C)C)C(=O)C2C(=O)Nc2ccccc2F)c1 (stereo not drawn) [Compound 37]
Plant response rating, Pigweed (pigweed; [3]): 0
Plant response rating, Pigweed (pigweed; [4]): 0
Pigweed plant response rating (pigweed; [5]): 0
Plant response rating, Pigweed (pigweed; [6]): 0
Plant response rating, Sedge, Umbrella (sedge, umbrella): 20
Plant response rating, Wheat (wheat; [3]): 0
Plant response rating, Wheat (wheat; [4]): 0
Wheat plant response rating (wheat; [5]): 0
Plant response rating, Wheat (wheat; [6]): 30
Plant response rating, Barnyardgrass (barnyardgrass [1]; [3]): 0
Plant response rating, Barnyardgrass (barnyardgrass [1]; [4]): 50
Barnyardgrass plant response rating (barnyardgrass [1]; [5]): 0
Plant response rating, Barnyardgrass (barnyardgrass [1]; [7]): 80
Plant response rating, Corn (corn; [3]): 0
Plant response rating, Corn (corn; [4]): 0
Corn plant response rating (corn; [5]): 0
Plant response rating, Corn (corn; [6]): 0
Plant response rating, Ducksalad (ducksalad): 0
Plant response rating, Velvetleaf (velvetleaf; [3]): 0
Plant response rating, Velvetleaf (velvetleaf; [4]): 0
Velvetleaf plant response rating (velvetleaf; [5]): 0
Plant response rating, Velvetleaf (velvetleaf; [6]): 0
Plant response rating, Foxtail, Giant (giant foxtail; [3]): 0
Plant response rating, Foxtail, Giant (giant foxtail; [4]): 20
Foxtail, Giant plant response rating (giant foxtail; [5]): 0
Plant response rating, Foxtail, Giant (giant foxtail; [6]): 20
Plant response rating, Crabgrass, Large (crabgrass, large; [3]): 0
Plant response rating, Crabgrass, Large (crabgrass, large; [4]): 20
Crabgrass, Large plant response rating (crabgrass, large; [5]): 0
Plant response rating, Crabgrass, Large (crabgrass, large; [6]): 80
Plant response rating, Barnyardgrass (barnyardgrass [2]): 0
Plant response rating, Morningglory (morningglory; [3]): 0
Plant response rating, Morningglory (morningglory; [4]): 0
Morningglory plant response rating (morningglory; [5]): 0
Plant response rating, Morningglory (morningglory; [6]): 0
Plant response rating, Rice (rice): 0

O=C1NCC(c2ccc(Cl)c(Cl)c2)C1C(=O)Nc1ccccc1[N+](=O)[O-] (stereo not drawn) [Compound 39]
Plant response rating, Pigweed (pigweed; [8]): 50
Plant response rating, Pigweed (pigweed; [9]): 0
Plant response rating, Sedge, Umbrella (sedge, umbrella): 0
Plant response rating, Wheat (wheat; [8]): 40
Plant response rating, Wheat (wheat; [9]): 0
Plant response rating, Barnyardgrass (barnyardgrass [1]; [8]): 50
Plant response rating, Barnyardgrass (barnyardgrass [1]; [9]): 70
Plant response rating, Corn (corn; [8]): 0
Plant response rating, Corn (corn; [9]): 0
Plant response rating, Ducksalad (ducksalad): 0
Plant response rating, Velvetleaf (velvetleaf; [8]): 10
Plant response rating, Velvetleaf (velvetleaf; [9]): 0
Plant response rating, Foxtail, Giant (giant foxtail; [8]): 70
Plant response rating, Foxtail, Giant (giant foxtail; [9]): 80
Plant response rating, Crabgrass, Large (crabgrass, large; [8]): 80
Plant response rating, Crabgrass, Large (crabgrass, large; [9]): 90
Plant response rating, Barnyardgrass (barnyardgrass [2]): 0
Plant response rating, Morningglory (morningglory; [8]): 10
Plant response rating, Morningglory (morningglory; [9]): 0
Plant response rating, Rice (rice): 0

Cc1ccccc1NC(=O)C1C(=O)NCC1c1ccc(Cl)c(Cl)c1 (stereo not drawn) [Compound 40]
Plant response rating, Pigweed (pigweed; [8]): 0
Plant response rating, Pigweed (pigweed; [9]): 0
Plant response rating, Sedge, Umbrella (sedge, umbrella): 0
Plant response rating, Wheat (wheat; [8]): 20
Plant response rating, Wheat (wheat; [9]): 20
Plant response rating, Barnyardgrass (barnyardgrass [1]; [8]): 80
Plant response rating, Barnyardgrass (barnyardgrass [1]; [9]): 90
Plant response rating, Corn (corn; [8]): 20
Plant response rating, Corn (corn; [9]): 30
Plant response rating, Ducksalad (ducksalad): 0
Plant response rating, Velvetleaf (velvetleaf; [8]): 0
Plant response rating, Velvetleaf (velvetleaf; [9]): 0
Plant response rating, Foxtail, Giant (giant foxtail; [8]): 90
Plant response rating, Foxtail, Giant (giant foxtail; [9]): 90
Plant response rating, Crabgrass, Large (crabgrass, large; [8]): 90
Plant response rating, Crabgrass, Large (crabgrass, large; [9]): 90
Plant response rating, Barnyardgrass (barnyardgrass [2]): 0
Plant response rating, Morningglory (morningglory; [8]): 10
Plant response rating, Morningglory (morningglory; [9]): 0
Plant response rating, Rice (rice): 0

O=C1NCC(c2ccc(Cl)nc2)C1C(=O)Nc1ccccc1F (stereo not drawn) [Compound 41]
Plant response rating, Pigweed (pigweed; [3]): 0
Plant response rating, Pigweed (pigweed; [4]): 30
Pigweed plant response rating (pigweed; [5]): 0
Plant response rating, Pigweed (pigweed; [6]): 0
Plant response rating, Sedge, Umbrella (sedge, umbrella): 20
Plant response rating, Wheat (wheat; [3]): 0
Plant response rating, Wheat (wheat; [4]): 0
Wheat plant response rating (wheat; [5]): 0
Plant response rating, Wheat (wheat; [6]): 0
Plant response rating, Barnyardgrass (barnyardgrass [1]; [3]): 0
Plant response rating, Barnyardgrass (barnyardgrass [1]; [4]): 50
Barnyardgrass plant response rating (barnyardgrass [1]; [5]): 30
Plant response rating, Barnyardgrass (barnyardgrass [1]; [7]): 60
Plant response rating, Corn (corn; [3]): 0
Plant response rating, Corn (corn; [4]): 0
Corn plant response rating (corn; [5]): 0
Plant response rating, Corn (corn; [6]): 0
Plant response rating, Ducksalad (ducksalad): 70
Plant response rating, Velvetleaf (velvetleaf; [3]): 0
Plant response rating, Velvetleaf (velvetleaf; [4]): 30
Velvetleaf plant response rating (velvetleaf; [5]): 0
Plant response rating, Velvetleaf (velvetleaf; [6]): 0
Plant response rating, Foxtail, Giant (giant foxtail; [3]): 0
Plant response rating, Foxtail, Giant (giant foxtail; [4]): 0
Foxtail, Giant plant response rating (giant foxtail; [5]): 10
Plant response rating, Foxtail, Giant (giant foxtail; [6]): 70
Plant response rating, Crabgrass, Large (crabgrass, large; [3]): 30
Plant response rating, Crabgrass, Large (crabgrass, large; [4]): 60
Crabgrass, Large plant response rating (crabgrass, large; [5]): 60
Plant response rating, Crabgrass, Large (crabgrass, large; [6]): 90
Plant response rating, Barnyardgrass (barnyardgrass [2]): 0
Plant response rating, Morningglory (morningglory; [3]): 0
Plant response rating, Morningglory (morningglory; [4]): 0
Plant response rating, Rice (rice): 0

O=C1NCC(c2ccc(F)c(F)c2)C1C(=O)Nc1ccccn1 (stereo not drawn) [Compound 45]
Plant response rating, Pigweed (pigweed; [3]): 0
Plant response rating, Pigweed (pigweed; [4]): 0
Pigweed plant response rating (pigweed; [5]): 0
Plant response rating, Pigweed (pigweed; [6]): 0
Plant response rating, Sedge, Umbrella (sedge, umbrella): 40
Plant response rating, Wheat (wheat; [3]): 0
Plant response rating, Wheat (wheat; [4]): 0
Wheat plant response rating (wheat; [5]): 0
Plant response rating, Wheat (wheat; [6]): 0
Plant response rating, Barnyardgrass (barnyardgrass [1]; [3]): 50
Plant response rating, Barnyardgrass (barnyardgrass [1]; [4]): 80
Barnyardgrass plant response rating (barnyardgrass [1]; [5]): 10
Plant response rating, Barnyardgrass (barnyardgrass [1]; [7]): 80
Corn plant response rating (corn; [5]): 0
Plant response rating, Corn (corn; [6]): 0
Plant response rating, Ducksalad (ducksalad): 80
Plant response rating, Velvetleaf (velvetleaf; [3]): 0
Plant response rating, Velvetleaf (velvetleaf; [4]): 0
Velvetleaf plant response rating (velvetleaf; [5]): 0
Plant response rating, Velvetleaf (velvetleaf; [6]): 0
Plant response rating, Foxtail, Giant (giant foxtail; [3]): 20
Plant response rating, Foxtail, Giant (giant foxtail; [4]): 70
Foxtail, Giant plant response rating (giant foxtail; [5]): 50
Plant response rating, Foxtail, Giant (giant foxtail; [6]): 80
Plant response rating, Crabgrass, Large (crabgrass, large; [3]): 60
Plant response rating, Crabgrass, Large (crabgrass, large; [4]): 80
Crabgrass, Large plant response rating (crabgrass, large; [5]): 80
Plant response rating, Crabgrass, Large (crabgrass, large; [6]): 90
Plant response rating, Barnyardgrass (barnyardgrass [2]): 0
Plant response rating, Morningglory (morningglory; [3]): 40
Plant response rating, Morningglory (morningglory; [4]): 50
Morningglory plant response rating (morningglory; [5]): 0
Plant response rating, Morningglory (morningglory; [6]): 0
Plant response rating, Rice (rice): 20
